Experimental data from PMC6391970, “Design, Synthesis and Characterization of Covalent KDM5 Inhibitors” (Angewandte Chemie (International Ed. in English), 2018).
Marks after values point to notes of the source that are not given here.

Columns and labels:
KDM5B [1] = target: T1, KDM5B (Homo sapiens, UniProt Q9UGL1, A373G/DEL102-140/DEL143-371/Q372G); test: KDM5B 2-OG competition assay (AlphaScreen); format: biochemical; settings: for IC50: AlphaScreen in vitro activity in KDM5B
T1 construct: A KDM5B construct encoding regions Phe26-Ile770 was amplified from an OriGene cDNA clone; 6x-histidine tag (TEV-cleavable) (N, cleaved yes); made in house; host or cells: Sf9 insect cells (baculovirus)
T1 sequence (Q9UGL1 with tags, fused parts or gaps DEL102-140/DEL143-371/Q372G/A373G): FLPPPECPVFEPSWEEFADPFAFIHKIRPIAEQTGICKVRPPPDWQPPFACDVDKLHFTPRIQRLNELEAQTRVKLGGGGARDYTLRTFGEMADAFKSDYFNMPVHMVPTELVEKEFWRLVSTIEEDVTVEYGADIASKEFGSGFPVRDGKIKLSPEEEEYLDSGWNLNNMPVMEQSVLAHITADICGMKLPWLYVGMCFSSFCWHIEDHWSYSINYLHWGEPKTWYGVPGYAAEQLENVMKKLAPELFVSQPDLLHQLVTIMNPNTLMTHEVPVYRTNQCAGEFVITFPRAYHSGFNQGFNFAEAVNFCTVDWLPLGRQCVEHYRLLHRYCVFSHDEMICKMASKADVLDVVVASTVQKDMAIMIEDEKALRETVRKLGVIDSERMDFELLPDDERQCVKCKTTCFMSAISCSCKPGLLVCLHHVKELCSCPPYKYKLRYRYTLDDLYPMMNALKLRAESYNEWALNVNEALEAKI
Method: (§1) KDM alpha screen selectivity
(§2) Inhibition of histone demethylases was assessed using the histone demethylase AlphaScreen assay (Amplified Luminescence Proximity Homogenous Assay) as previously reported.[4] The basis of this assay for lysine demethylases have been widely described.[5] In brief, the assay was performed in 384-well plate format using white proxiplates (PerkinElmer), and transfer of titrations of compounds (100 nl) was performed using an ECHO 550 acoustic dispenser […]
(§3) Tween- 20) containing the appropriate demethylase enzyme (see Supplementary table 1 for final concentrations) was transferred to each well of a 384-well proxiplate with a Multidrop™ Combi Reagent Dispenser, and the enzymes allowed to pre-incubate for 120 minutes with compound (final concentration of DMSO was 1%). After that time, the enzyme reaction was initiated by addition of 5 µl of a substrate mix consisting of Ketoglutarate (2-OG), Ferrous Ammonium Sulphate (FAS), L-Ascorbic Acid (LAA) and biotinylated peptide substrate (see Supporting table X for final assay concentrations) and the reaction incubated for the indicated time at room temperature. Reaction was stopped by the addition of 5 μl of assay buffer containing EDTA (7.5 mM) and NaCl (400 mM). Streptavidin Donor beads (0.08 mg/ml) and Protein-A conjugated acceptor beads (0.08 mg/ml) (AlphaScreen General IgG detection kit was from Perkin Elmer) were pre-incubated for 1 hour with an antibody to the product methyl mark (Supplementary Table 1) and the presence of biotin-H3-product was detected by addition of 5 µl of the pre-incubated AlphaScreen beads (final concentrations of 0.02 mg/ml with respect to acceptor and donor beads). Detection was allowed to proceed for 2 hour at room temperature and the assay plates read in a BMG Labtech Pherastar FS plate reader (excitation, 680 nm; emission, 570 […]
IC50(t) = Ki (1 + K ) . ( η . k .t − 1) (1)
KDM5B 2-OG competition assay
2-OG competition assay were performed as described for the general KDM5B AlphaScreen method above, varying the 2-OG concentrations from a range of 1mM to 0.5 μM. Data were normalized to the no enzyme control and the IC50 determined from the nonlinear regression curve fit using GraphPad Prism 7.

MDCK cells = settings: Previously reported values in MDCK cells, A to B; cited from earlier work
KDM5B (NanoLuc-KDM5B) = KDM5B (NanoLuc-KDM5B) (Homo sapiens, UniProt Q9UGL1); test: NanoBRET cellular target engagement assay in HEK293 cells
Chain of KDM5B (NanoLuc-KDM5B) (Q9UGL1 whole entry): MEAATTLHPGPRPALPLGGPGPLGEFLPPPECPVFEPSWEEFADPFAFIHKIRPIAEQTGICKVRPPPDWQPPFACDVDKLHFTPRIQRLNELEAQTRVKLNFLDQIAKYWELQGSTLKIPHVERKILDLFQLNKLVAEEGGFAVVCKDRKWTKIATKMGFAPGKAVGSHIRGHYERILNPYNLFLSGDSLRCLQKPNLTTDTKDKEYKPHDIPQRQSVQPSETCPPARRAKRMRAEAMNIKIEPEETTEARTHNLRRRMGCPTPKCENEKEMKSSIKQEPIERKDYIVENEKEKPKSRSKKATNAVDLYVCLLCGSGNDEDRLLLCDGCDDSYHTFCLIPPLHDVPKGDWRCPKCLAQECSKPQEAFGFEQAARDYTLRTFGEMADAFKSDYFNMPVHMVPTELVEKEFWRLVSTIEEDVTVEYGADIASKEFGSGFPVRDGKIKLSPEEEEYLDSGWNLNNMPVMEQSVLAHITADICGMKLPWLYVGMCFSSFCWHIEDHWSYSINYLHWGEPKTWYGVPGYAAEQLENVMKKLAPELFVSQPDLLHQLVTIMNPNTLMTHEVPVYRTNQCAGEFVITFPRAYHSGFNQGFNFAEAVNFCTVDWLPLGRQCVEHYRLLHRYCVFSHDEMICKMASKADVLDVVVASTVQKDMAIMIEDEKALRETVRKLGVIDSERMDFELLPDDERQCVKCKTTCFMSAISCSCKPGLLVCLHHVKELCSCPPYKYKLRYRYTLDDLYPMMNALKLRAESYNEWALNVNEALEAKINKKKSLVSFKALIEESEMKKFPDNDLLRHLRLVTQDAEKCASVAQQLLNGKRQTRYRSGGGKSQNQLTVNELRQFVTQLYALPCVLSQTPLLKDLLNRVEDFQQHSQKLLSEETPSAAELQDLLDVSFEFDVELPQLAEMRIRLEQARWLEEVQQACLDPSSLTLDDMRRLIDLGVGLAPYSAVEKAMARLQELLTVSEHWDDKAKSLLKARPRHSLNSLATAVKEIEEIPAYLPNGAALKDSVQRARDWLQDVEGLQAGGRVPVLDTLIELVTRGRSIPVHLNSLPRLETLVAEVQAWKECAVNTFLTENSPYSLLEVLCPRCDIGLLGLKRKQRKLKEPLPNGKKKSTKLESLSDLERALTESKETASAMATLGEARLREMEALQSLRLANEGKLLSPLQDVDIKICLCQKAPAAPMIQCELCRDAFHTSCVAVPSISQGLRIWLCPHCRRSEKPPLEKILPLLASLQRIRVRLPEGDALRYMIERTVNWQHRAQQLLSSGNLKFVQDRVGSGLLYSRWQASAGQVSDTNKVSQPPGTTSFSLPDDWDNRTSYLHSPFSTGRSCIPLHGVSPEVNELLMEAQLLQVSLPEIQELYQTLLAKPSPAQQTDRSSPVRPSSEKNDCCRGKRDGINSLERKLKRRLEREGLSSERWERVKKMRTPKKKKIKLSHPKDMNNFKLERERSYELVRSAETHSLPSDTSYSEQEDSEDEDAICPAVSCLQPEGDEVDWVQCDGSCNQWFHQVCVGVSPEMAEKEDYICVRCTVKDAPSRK

KDM5B [2] = settings: previously reported value, cited from earlier work
KDM5B [3] = target: T2, KDM5B (Homo sapiens, UniProt Q9UGL1); test: Timecourse KDM5B AlphaScreen inhibition and kinact/Ki calculation; format: biochemical
T2 sequence (Q9UGL1 26-101 limits assumed): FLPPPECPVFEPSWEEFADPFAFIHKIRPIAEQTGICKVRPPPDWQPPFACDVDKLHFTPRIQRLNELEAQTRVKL
T2 sequence (Q9UGL1 374-770 limits assumed): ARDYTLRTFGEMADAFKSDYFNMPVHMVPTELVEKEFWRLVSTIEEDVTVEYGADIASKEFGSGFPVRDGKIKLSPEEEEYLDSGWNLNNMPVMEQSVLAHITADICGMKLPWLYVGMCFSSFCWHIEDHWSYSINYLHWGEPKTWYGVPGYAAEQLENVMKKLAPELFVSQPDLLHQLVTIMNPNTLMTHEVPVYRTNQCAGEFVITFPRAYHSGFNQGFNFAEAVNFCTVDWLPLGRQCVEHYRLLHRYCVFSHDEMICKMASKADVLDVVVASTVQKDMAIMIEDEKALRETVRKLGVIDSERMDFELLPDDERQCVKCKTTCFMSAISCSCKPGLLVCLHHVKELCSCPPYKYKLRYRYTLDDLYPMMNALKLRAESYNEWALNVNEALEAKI
Method: These parameters were calculated by using an established method to derive K i and k inact directly from time‐dependant IC50 values (Table S1). […]
as §1, §2
as §3, with “570 nm). Data were normalized to the no enzyme control and the IC50 determined from the nonlinear regression curve fit” for “570”
Timecourse KDM5B inhibition and Kinact/Ki calculations
The timecourse alphascreen assay was performed using the conditions described in the AlphaScreen section for KDM5B but with different pre-incubation times (from 0 to 120 min) for the enzyme with compound. Data were normalized to the no enzyme control and the IC50 for each timepoint was determined from the nonlinear regression curve fit using GraphPad Prism 7. The Ki and kinact were calculated through a least squares fit of the obtained IC50 at the different timepoints into the equation below which was derived by Krippendorff et al.[6] S is the H3K4me3 peptide substrate concentration of 0.1 µM and KM is the Michaelis-Menten constant for the substrate of 0.5 µM. XLFit software was used to compute the values of Ki and kinact. […]

Caco-2 permeability = format: in vitro ADME; settings: human, Caco-2, Caco‐2 cells, A to B
KDM5B [4] = target: T1, KDM5B; test: Covalent binding by MS (RapidFire intact mass, peptide mapping), KDM5B

Row | IC50 (KDM5B (NanoLuc-KDM5B)) [nM] | Ki (KDM5B [3]) [nM] | k inact/K i (KDM5B [3]) [M⁻¹ s⁻¹] | kinact (KDM5B [3]) [s⁻¹] | kinact/KI (KDM5B [3]; Table S1) [M⁻¹ s⁻¹] | Papp A→B (Caco-2 permeability) [×10⁻⁶ cm/s] | inhibitor reactive residue in KDM5B (peptide mapping, LCMS/MS) (KDM5B [4]; digestion of protein–inhibitor adduct) | SMILES | drop in potency with 2-OG concentration (KDM5B [1]; 2-OG from 0.5 μM up to 1000 μM) [fold] | IC50 (KDM5B [1]; IC50 (2‐OG 1 μM), 2-OG 1 μM) [nM] | IC50 (KDM5B [1]; IC50 (2‐OG 1 mM), 2-OG 1 mM) [nM] | P app (MDCK cells) | 2‐OG shift (KDM5B [2]) | IC50 (KDM5B [2]; read-out: IC50 (2‐OG 1 μM), KDM5B) [nM] | covalent binding to KDM5B by intact MS (KDM5B [4]; protein 1 μM, compound 10 μM, 2 hours, 37 °C)
1 | 400 | – | – | – | – | – | – | CC(C)c1c(-c2ccccc2)[nH]c2c(C#N)cnn2c1=O [CPI‐455] | – | – | – | 17.2^[c] 10^−6 cm s^−1 | 2.0^[c] | 3 | –
2 | > 30000 | 834 ± 79 | 1400 | 0.0012 ± 1.3e-05 | 1400 ± 20 | < 1.5 | binding specifically to the desired C480 | C=CC(=O)N1CCN(CCc2cnn(-c3nccc4c(=O)[nH]cnc34)c2)CC1 [Compound 3] | – | 184 | – | – | – | – | major peak relating to protein–inhibitor adduct

Row | SMILES | IC50 (KDM5B (NanoLuc-KDM5B)) [nM] | Ki (KDM5B [3]) [nM] | k inact/K i (KDM5B [3]) [M⁻¹ s⁻¹] | kinact (KDM5B [3]) [s⁻¹] | kinact/KI (KDM5B [3]; Table S1) [M⁻¹ s⁻¹] | Papp A→B (Caco-2 permeability) [×10⁻⁶ cm/s] | inhibitor reactive residue in KDM5B (peptide mapping, LCMS/MS) (KDM5B [4]; digestion of protein–inhibitor adduct) | drop in potency with 2-OG concentration (KDM5B [1]; 2-OG from 0.5 μM up to 1000 μM) [fold] | IC50 (KDM5B [1]; IC50 (2‐OG 1 μM), 2-OG 1 μM) [nM] | IC50 (KDM5B [1]; IC50 (2‐OG 1 mM), 2-OG 1 mM) [nM] | P app (MDCK cells) | 2‐OG shift (KDM5B [2]) | IC50 (KDM5B [2]; read-out: IC50 (2‐OG 1 μM), KDM5B) [nM] | covalent binding to KDM5B by intact MS (KDM5B [4]; protein 1 μM, compound 10 μM, 2 hours, 37 °C)
3 | CC(C)c1c(-c2cnn(C(C)(C)C)c2)[nH]c2c(C#N)cnn2c1=O [Compound 1, reference compound] | 340 | – | – | – | – | – | – | 8 | 15 | 377 | 7.5^[c] 10^−6 cm s^−1 | – | – | –
